According to a melting point compilation (Tetko et al.; mined from patent text by program, amines drawn as free bases though some values may be those of a salt):

Structure (SMILES)	melting point [°C]
COc1cc2nc(N3CCc4cc(OCc5ccccc5)c(OC)cc4C3)cc(N)c2cc1OC	181 to 182
Cc1ccc(S(=O)(=O)OCC2Cc3cccc(C=Cc4ccccc4)c3O2)cc1 (centres undefined)	120 to 122
COc1cc(C(=O)N2CCC(CCN3CCC(Nc4nc5ccccc5n4Cc4nccn4Cc4ccccc4)CC3)(c3ccc(F)cc3)C2)cc(OC)c1OC (centres undefined)	95 to 100
CC(=O)NC[C@H]1CN(c2ccc(Br)cn2)C(=O)O1	166 to 168
Cn1c(=O)c(Oc2ccc(F)cc2F)cc2cnc(S(C)(=O)=O)nc21	177 to 178
Cc1cccc(Nc2n[nH]c(N=CN(C)C)c2C#N)c1	260 to 261
COC(=O)c1ccc(OCCNC(=O)OCc2ccccc2)cc1Cl	88 to 90
CC(C)c1c(Sc2ccccc2)n(CC2CC=CC2)c(=O)[nH]c1=O	131 to 134
Cc1cc(NCc2ccccc2)c(C)c2c1OCC2c1ccc(C(C)C)cc1 (centres undefined)	82 to 83
Cc1cccc(NC(=O)NCC(=O)N(CC(=O)N(C)c2ccc(Cl)cc2)c2ccccc2)c1	160
c1cc(CSSc2nc3ccccc3s2)cc(CSSc2nc3ccccc3s2)c1	94 to 96
CCOc1ccc2c(c1)C(C)(c1cc(C(=O)ON3C(=O)CCC3=O)ccc1Cl)C(=O)N2S(=O)(=O)c1ccc(C(=O)NC(C)(C)C)cc1 (centres undefined)	168
CCCN(CCC)C(=O)Nc1nn(Cc2ccccc2)cc1C(=O)OCC	114 to 115
O[C@@H](COc1cccc(-c2noc3ccsc23)c1)CN1CCN(c2cccc(Cl)c2)CC1	118 to 120
CCSc1cccc(C)c1S(=O)(=O)NC(C)(C)C	94
COc1ccc2[nH]ccc2c1OCc1ccccc1	83 to 84
O=C(N[C@@H](CO)C(=O)NCCCCOC1CCCCC1)c1ccc(C(=O)c2cccnc2)cc1	55 to 61
O=C1CCCc2cc(Sc3ccccc3)cc(F)c21	112 to 113
Cc1ccc2c(C3CN4CCC3CC4)c(C)[nH]c2c1 (centres undefined)	237 to 238
CCOC(=O)ON(C(N)=O)[C@H]1C[C@@H](c2ccc(F)cc2)C1	124 to 126
CCC1CCCCCc2c1oc(=O)c(C(c1ccccc1)C1CC1)c2O (centres undefined)	94 to 98
CC1=C2CCc3cc(C)ccc3N2CCC1=O	143 to 145
COc1ccc2c(c1OC)CCC(NC(=O)C(F)(F)F)C2=O (centres undefined)	166 to 167

Structure (SMILES)	melting point [°C]
CC1=NOC(c2c(S(C)(=O)=O)ccc(C(=O)c3cnn(C4CC4)c3O)c2Cl)C1 (centres undefined)	> 220
CCc1ccc2nc(OC)nc(N)c2c1	168 to 170
C=CCC(CO)C(O)c1cccnc1 (centres undefined)	112 to 113
COc1c(C)c2c(c(O)c1C/C=C(\C)C1CCCC1C(=O)O)C(=O)OC2 (centres undefined)	157 to 158
CCCN(CCCCNC(=O)N1CC=C(c2ccccc2)CC1)C1CCc2ncsc2C1 (centres undefined)	115
CC(C)(C)OC(=O)N1CC(CCl)c2c1cc(NC(=O)OCC1c3ccccc3-c3ccccc31)c1ccccc21 (centres undefined)	103 to 106
O=C(C=CCN1CCN(CC(=O)OCc2ccccc2)CC1)Nc1cc2c(Nc3ccc(F)c(Cl)c3)ncnc2cc1OCC1CC1	174
N#CC(c1ccc(Cl)c(Cl)c1)c1c(Cl)cc(NN)cc1Cl (centres undefined)	183 to 185
CC(=O)NC(C)Cc1cc2c(cc1CC(=O)O)OCO2 (centres undefined)	195 to 197
N#CNC(=S)Nc1ccc(Cl)cc1	> 250
CC[C@H](C1CC1)n1cc(Cl)nc(N2CCc3cc(Br)cc(Cl)c32)c1=O	126 to 127
O=C(C=Cc1cccc(Cl)c1Cl)c1ccc(OC2CCCCO2)cc1 (centres undefined)	116 to 118
CC(C)(C)OC(=O)C=Cc1cncc2ccccc12	81 to 83
COc1nc(OC)c(SC)c(OC)n1	90.5 to 91
C/C(=N\OC(=O)CN(C)C)[C@H]1CC[C@H]2[C@@H]3CCC4=CC(=O)CC[C@]4(C)[C@H]3CC[C@]12C	129 to 131
O=c1[nH]c2ccc(Br)cc2c(=O)n1CCS	334 to 336
CCCCNC(=O)Oc1ccc2c(N3CCN(CCCC(=O)c4ccc(F)cc4)CC3)noc2c1	137 to 141
CCOC(=O)C(CCc1ccccc1)CC1(C(=O)O)CCCC1 (centres undefined)	68 to 69
CC12CC(Cl)C(O)CC1CCC1C2CCC2(C)C(O)C(N3CCCCC3)CC12 (centres undefined)	232 to 234
O=C(CCCN1C(=O)c2ccccc2C1=O)N1CCC(C2c3ncc(Br)cc3CCc3cc(Cl)cc(Br)c32)CC1 (single isomer, unassigned; (+))	100 to 102
Cn1c(CCNC(=O)C(F)(F)F)cc2ccccc21	124 to 126
COCc1c(Cl)ccc(C(=O)c2cnoc2C2CC2)c1S(C)(=O)=O	83.6 to 84.2
CCCC(CCC)n1c(CC)nc2c1c(=O)n(C)c(=O)n2-c1c(C)cc(C)cc1C	195 to 196

Structure (SMILES)	melting point [°C]
NC(=O)/C=C1/c2cc(F)ccc2CC1Br (centres undefined)	162 to 163
C/C=C/c1nnc(N2N=C(c3ccc([N+](=O)[O-])c(C)c3)c3cc4c(cc3C[C@H]2C)OCO4)s1	232 to 237
CN(C)Cn1cnc2c1c(=O)n(C)c(=O)n2C	121 to 123
S=C=Nc1c(Br)cccc1Br	63 to 65
CCOC(=O)c1c(CC)nn2ccc3c(c12)CCO3	110 to 111
O=C1c2cccc3cccc(c23)C(=O)N1C1CCC(O)CC1 (centres undefined)	240 to 242
O=C1C=C(Cl)C(=O)c2ccccc21	154 to 156
O=c1[nH]c(=Cc2ccc(OCc3ccccc3)cn2)c(=O)[nH]c1=Cc1cccc(Cl)c1	236 to 237
COC(=O)C=C(N)CC(=O)OC	47 to 50
CCCCN(CCCC)CCCOc1ccc(S(=O)(=O)c2ccccc2CC)cc1	80
N#Cc1ccccc1Oc1ccc(-c2cn(C3CCOC3)c3ncnc(N)c23)cc1 (centres undefined)	201 to 203
CCc1cc(=O)n(-c2cc(OC(C)C)c(Cl)cc2F)c(=O)n1C	72 to 74
Cc1oc(C2CCCCC2)nc1C(=O)O	173 to 174
COC(=O)C(CCl)NC(=O)c1c(F)cccc1F (centres undefined)	93.5
ONc1cc(Cl)ccc1Cl	124
CC1CNc2c3c(nc4cccc(c24)O1)CCCC3 (centres undefined)	169 to 170
COc1ccc(S(=O)(=O)C(CCCCc2ccccc2)C(=O)O)cc1OC (centres undefined)	114 to 116
C[C@H]([C@@H](C)P(=S)(c1ccccc1)c1ccccc1)P(=S)(c1ccccc1)c1ccccc1	213 to 214
CN(C)C1CCCC1Cc1cccc(-c2cccc(N)n2)c1 (centres undefined)	60 to 80
O=C(O)C1CCc2ccccc2N1C(=O)CSSCC(=O)N1c2ccccc2CCC1C(=O)O (centres undefined)	172 to 174
CC(C)(C)c1cc(C(O)C#Cc2ccc(C(=O)O)cc2)ccc1N1CCCCC1 (centres undefined)	112

More lines, now with the values ahead:

melting point [°C]	Structure (SMILES)
86 to 88	COc1ccc(C(=O)c2cccnc2)cc1[N+](=O)[O-]
114 to 116	CCCc1cc(Cl)c2sc(Cc3ccc(OC)cc3)c(C)c2c1O
285 to 290	CCNC(=O)Nc1nc2cc(-c3ccc(N(C)C)nc3)ccn2n1
193 to 197	CC(C)(C)N(NC(=O)c1cncc(Br)c1)C(=O)c1ccc(Cl)cc1
103 to 110	NC1=NS(=O)N=C1NCCCN(Cc1ccncc1)c1ccccn1 (centres undefined)
148 to 151	Cc1nn(C)c(C)c1C(=O)Nc1ccc(C(C(F)(F)F)C(F)(F)F)c(CC(C)C)c1
126 to 129	COc1ccc(Oc2cnccc2N)c2ccccc12
175 to 178	CN(C(=O)c1c(Cl)cccc1Cl)c1cc(-c2ccc(Cl)cc2)on1
96 to 98	CCN(CC)C(=O)n1ccc(Sc2cccc(C)c2)n1
137 to 138	CC(=O)c1c(-c2ccncc2)sc(-c2ccncc2)c1C
132 to 133	CC(=O)c1cc(F)ccc1Oc1nc2ccc([N+](=O)[O-])cc2cc1Cc1ccccc1
> 230	COc1ccc(COc2cnc3c(S)cccn3c2=O)cc1
80	Cn1cncc1C(O)(c1ccc(Cl)cc1)c1ccc2nc(C=CC(N)=O)cc(-c3cccc(Cl)c3)c2c1 (centres undefined)
145 to 150	CCCCC(=O)Nc1ccc(-c2ccc(-c3ccccc3Cl)n2Cc2cccc(N)n2)cc1
72 to 73	CCOC(=O)COc1ccc(N(C)Cc2ccc(-c3ccc(C(F)(F)F)cc3)nc2C)cc1CCCOC
283 to 285	Cc1cc(-c2ccc(C#N)cc2)cn2cc(-c3ccc(C#N)cc3)nc12

melting point [°C]	Structure (SMILES)
132 to 133	CCc1nn2c(-c3cccnc3)ccnc2c1Cl
> 250	COc1ccc(C(=O)Nc2cccnc2)c2c1oc1ccc(NC(C)=O)cc12
154	COc1cccc(S(=O)(=O)Nc2ccc(Cl)nc2I)c1
185 to 188	COC(=O)CCc1ccc(OCc2cccc(-c3cccc(CO)c3)c2)cc1
246 to 248	CC(C)(C)c1ccc(C(=O)Nc2cn3c4c(ccc3n2)OCC4)cn1
92 to 97	COc1ccc(C(CCc2ccccc2)C(=O)O)cc1 (centres undefined)
172 to 175	Cc1ccc(C(=O)NC(C)NC(=S)Nc2cccc([N+](=O)[O-])c2)cc1 (centres undefined)
190 to 192	Nc1c2c(nc3ccccc13)-c1ccccc1CCC2
172 to 175	Nn1c(-c2ccccc2Cl)nnc1-c1ccccc1C(F)(F)F
185 to 187	COc1ccc2c(c1)CCc1c(cccc1C(=O)O)S2
59 to 60	CN1C(=O)CC[C@]2(C)c3ccc(-c4ccc([N+](=O)[O-])cc4)cc3CC[C@@H]12
231 to 232	CC(C)(C)c1ncc(Nc2ncc(-c3ccc4ccncc4c3)c3ccccc23)cn1
89 to 90	Cc1oc(-c2ccco2)nc1COc1ccc(CCCn2ccnc2)cc1
151 to 152	CCOC(=O)N1CCC(n2nc(Cc3ccc(F)cc3)c3ccccc3c2=O)CC1
148 to 150	COCN(COC)c1ccn2nc(-c3ccccc3)c(-c3ccc(=O)n(C(C)C)n3)c2c1
143	CC(=O)c1ccccc1-c1cccc(C(=O)O)c1
